Data reported in PMC8518382, “Identification of a Bromodomain‐like Region in 15‐Lipoxygenase‐1 Explains Its Nuclear Localization” (Angewandte Chemie (International Ed. in English), 2021).

Experiments:
[1] = test system: endogenous LOXs in intact RAW 264.7 macrophage cells; test: Western blot of Labelox B labeling in intact RAW 264.7 macrophage cells; type: cell-based
From the text: (§1) described in the IC50 determination assay. Michaelis-Menten plots, Lineweaver-Burk plots, Km, and Vmax, are generated using GraphPad Prism 8.3.0.
1.5. Kits-Wilson kinetic analysis […]
enzyme to get a reversible complex, E*I. The dissociation constant of inhibitor (Ki) is from the formation […]
E-I. The inactivation rate constant (ki) is to describe the rate of E-I generation. To determine these inactivation parameters, Kitz-Wilson analysis was employed. The procedure has been detailed previously […]
1.6. Immunoblotting Analysis
Raw 264.7 cells were seeded in a 6-well plate at a density of 5x10^5 cells per well in high glucose DMEM media supplemented with 1% penicillin/streptomycin, 10% fetal bovine serum (FBS) (Costar Europe, Badhoevedrop, The Netherlands) at 37°C and cultured overnight. Afterward, cells were treated with the desired concentration of Labelox B at the expected time. Then, the cells were harvested and lysed with RIPA buffer containing 1X PIC. […]
Later, 30 μl of each sample was used for immunoblotting analysis. […] After washing, the blotting bands were detected with enhanced chemiluminescence (ECL) solution (GE Healthcare, Amersham, UK). […]
A549 cells were lysed by RIPA buffer supplemented with 1x PIC. After sonication and centrifugation, the supernatant was collected, and the protein concentration was determined by a Pierce BCA Protein Assay Kit (Thermo Fisher Scientific, USA). […]

[2] = molecular target: T1, 15-LOX-1 (Homo sapiens, UniProt P16050); test: Kitz-Wilson kinetic analysis of 15-LOX-1 inactivation; type: biochemical; parameters: His-tag (N); made in house; host or cells: E. coli BL21(DE3)
T1 sequence (P16050 1-662): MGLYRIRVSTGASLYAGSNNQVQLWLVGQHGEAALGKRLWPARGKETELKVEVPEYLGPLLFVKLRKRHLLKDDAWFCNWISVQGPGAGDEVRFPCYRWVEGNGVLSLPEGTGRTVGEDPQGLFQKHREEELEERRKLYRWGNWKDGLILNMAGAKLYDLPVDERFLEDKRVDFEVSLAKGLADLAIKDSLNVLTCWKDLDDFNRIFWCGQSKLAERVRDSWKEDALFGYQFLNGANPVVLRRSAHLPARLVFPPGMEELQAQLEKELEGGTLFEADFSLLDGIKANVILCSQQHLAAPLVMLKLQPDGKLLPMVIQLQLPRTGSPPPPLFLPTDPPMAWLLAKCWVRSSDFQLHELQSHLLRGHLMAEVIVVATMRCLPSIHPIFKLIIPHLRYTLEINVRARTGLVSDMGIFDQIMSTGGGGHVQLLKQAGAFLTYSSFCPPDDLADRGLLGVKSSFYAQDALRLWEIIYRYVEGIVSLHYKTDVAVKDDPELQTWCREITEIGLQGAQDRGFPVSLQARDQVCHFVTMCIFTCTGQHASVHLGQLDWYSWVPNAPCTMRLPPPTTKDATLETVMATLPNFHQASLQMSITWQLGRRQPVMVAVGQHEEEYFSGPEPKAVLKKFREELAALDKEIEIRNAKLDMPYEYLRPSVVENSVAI
Procedure: Subsequently, Kitz‐Wilson analysis was performed to distinguish the equilibrium binding constant (K i) from the rate of covalent inactivation (k i). The different bis‐alkynes provided remarkably constant k i’s that varied by a factor 3 or less, whereas the K i’s varied by a factor 200 (Table 1). […] Improved non‐covalent binding is an important characteristic for activity‐based labeling because it implies improved specific recognition properties to the target of interest. Therefore, inhibitor 3 has been used for further development of a probe for activity‐based labeling of lipoxygenase activity with 15‐LOX‐1 as a reference enzyme. For convenient discussion, we named inhibitor 3, “Labelox B”. […]
as §1
1.5. Kits-Wilson kinetic analysis
The probes inhibit the 15-LOX-1 enzyme with a two-step reaction. First, a probe binds to an enzyme to get a reversible complex, E*I. The dissociation constant of inhibitor (Ki) is from the formation of E*I. Then, the probe forms a covalent bond with the enzyme, which generates an irreversible complex, E-I. The inactivation rate constant (ki) is to describe the rate of E-I generation. To determine these inactivation parameters, Kitz-Wilson analysis was employed. The procedure has been detailed previously

## CCCCCC#CCC#CCOC(=O)CCCC[C@@H]1SC[C@@H]2NC(=O)N[C@@H]21 [Labelox B (3)]
[1]; 1 μM to 100 μM, 0.5 h to 6 h
  Labeling of proteins with the size of endogenous LOXs: dose and time‐dependent manner
[1]; labels effectively in half an hour at 25 μM
  Cell permeability: sufficiently cell‐permeable
[2]
  k i (rate of covalent inactivation): 0.0191 ± 0.0038 min⁻¹
[2]; read-out: K i (equilibrium binding constant)
  Ki: 500 ± 140 nM
